Reference: ChEMBL document CHEMBL6134907, “Synthesis of 5,9- and 5,8-Diaminoalkoxy Substituted Benzophenanthridinone Analogues as Tyrosyl-DNA Phosphodiesterase 1 Inhibitors and Their Radiosensitizing Activity” (J Med Chem, 2025)
Activity calls are given as the source filed them. No cut-off for these calls is given here.

Columns and labels:
HCT-116 [1] = test: Radiosensitizing activity in human HCT-116 cells assessed as induction of 2 GY ionizing radiation (IR) induced cell killing effect; assay type: functional, cell-based
[2] = AUClast in male Sprague-Dawley rat at 5 mg/kg, IG measured up to 24 hrs by LCMS-MS analysis; assay type: ADME, organism-based; settings: in vivo, po
[3] = MRT infinity in male Sprague-Dawley rat at 5 mg/kg, IG measured up to 24 hrs by LCMS-MS analysis; assay type: ADME, organism-based; settings: in vivo, po
HCT-116 [4] = test: Anti-tumor activity against human HCT-116 cells xenografted in BALB/c mouse assessed as tumor growth inhibition at 10 mg/kg, ip every day for 14 days; assay type: functional, organism-based; settings: time 14.0 day
HCT-116 [5] = test: In vivo radiosensitizing activity in human HCT-116 cells xenografted in BALB/c mouse assessed as sensitization of 1 GY ionizing radiation induced tumor growth inhibition at 10 mg/kg, ip every day for 14 days radiated for every 2 days once; assay type: functional, organism-based; settings: time 14.0 day
[6] = Toxicity in BALB/c mouse xenografted with human HCT-116 cells assessed as change in body weight at 10 mg/kg, ip every day for 14 days; assay type: organism-based; settings: in vivo, 336 h, time 14 day
[7] = Toxicity in BALB/c mouse xenografted with human HCT-116 cells assessed as change in liver weight at 1 to 10 mg/kg, ip every day for 14 days radiated for every 2 days once; assay type: organism-based; settings: in vivo, 336 h, dose 1-10 mg/kg, time 14 day
[8] = Toxicity in BALB/c mouse xenografted with human HCT-116 cells assessed as change in spleen weight at 1 to 10 mg/kg, ip every day for 14 days radiated for every 2 days once; assay type: organism-based; settings: in vivo, 336 h, dose 1-10 mg/kg, time 14 day
[9] = Toxicity in BALB/c mouse xenografted with human HCT-116 cells assessed as change in lung weight at 1 to 10 mg/kg, ip every day for 14 days radiated for every 2 days once; assay type: organism-based; settings: in vivo, 336 h, dose 1-10 mg/kg, time 14 day
[10] = test system: Tyrosyl-DNA phosphodiesterase 1/Deoxyribonucleic acid; test: Stabilization of TDP1/DNA complex in human HCT-116 cells at 100 uM by Cellular Thermal Shift Assay (CETSA); assay type: cell-based
HCT-116 [11] = test: Synergistic cytotoxicity against human HCT116 cells assessed as combination index at 1 uM incubated for 48 hrs in presence of 2GY ionizing radiation (IR); assay type: functional
[12] = Suppression of ionizing radiation (IR) induced DNA damage in human SgTDP1-HCT-116 cells (TDP1 knockout) assessed as NHEJ repair activity by measuring GFP positive cells at 1 uM measured after 24 hrs by flow cytometry (reference value: 100%); assay type: functional
HCT-116 [13] = test: Effect on Ku70/80 expression in wild type human HCT-116 cells assessed as change in protein level at 5 to 10 uM measured after 24 hrs by Western blot analysis; assay type: functional, cell-based; settings: dose 5-10 µM
HCT-116 [14] = test: Effect on Lig4 expression in wild type human HCT-116 cells assessed as change in mRNA level at 5 to 10 uM measured after 24 hrs by qRT-PCR analysis; assay type: functional, cell-based; settings: dose 5-10 µM
HCT-116 [15] = test: Effect on Lig4 expression in wild type human HCT-116 cells assessed as change in protein level at 5 to 10 uM radiated with 4 GY ionizing radiation (IR) measured after 24 hrs by Western blot analysis; assay type: functional, cell-based; settings: dose 5-10 µM
HCT-116 [16] = test: Induction of gamma-H2AX level in human HCT-116 cells at 5 uM measured after 3 hrs by Western blot analysis; assay type: functional, cell-based
HCT-116 [17] = test: Induction of ionizing radiation (IR) induced gamma-H2AX foci in human HCT-116 cells at 5 uM measured after 3 hrs by immunofluorescence assay; assay type: functional, cell-based
HCT-116 [18] = test: Induction of PIG3 transcription level in human HCT-116 cells measured after 24 hrs treated with 4 GY ionizing radiation (IR); assay type: functional, cell-based; settings: dose 5-10 µM
HCT-116 [19] = test: Downregulation of cell cycle pathway in human HCT-116 cells at 5 uM measured after 24 hrs by KEGG analysis; assay type: functional, cell-based
HCT-116 [20] = test: Induction of PIG3 expression in human HCT-116 cells xenografted BALB/c mouse tumor at 5 to 10 mg/kg, ip every day for 14 days by immunohistochemical analysis; assay type: functional, organism-based; settings: dose 5-10 mg/kg, time 14.0 day
HCT-116 [21] = test: Effect on ROS generation in human HCT-116 cells assessed as increase in intracellular ROS level at 5 to 10 uM measured after 20 mins by ELIASA analysis; assay type: functional, cell-based; settings: dose 5-10 µM
HCT-116 [22] = test: Induction of 4GY ionizing radiation (IR) induced ROS production in human HCT-116 cells assessed as mitochondrial dysfunction by measuring mitochondrial membrane potential loss at 10 uM measured after 24 hrs by JC-1 staining analysis; assay type: functional, cell-based
HCT-116 [23] = test: Induction of cell cycle arrest in human HCT-116 cells assessed as accumulation of cells at S phase at 5 uM measured after 24 hrs by Propidium iodide (PI) staining based assay (reference value: 13.96%); assay type: functional
HCT-116 [24] = test: Induction of cell cycle arrest in human HCT-116 cells assessed as accumulation of cells at G2/M phase at 5 uM measured after 24 hrs by Propidium iodide (PI) staining based assay (reference value: 15.77%); assay type: functional
HCT-116 [25] = test: Induction of cell cycle arrest in human HCT-116 cells assessed as accumulation of cells at G2/M phase at 10 uM measured after 24 hrs by Propidium iodide (PI) staining based assay (reference value: 15.77%); assay type: functional
[26] = Induction of 4GY ionizing radiation (IR) induced cell cycle arrest in human HCT-116 cells assessed as accumulation of cells at S phase at 5 uM measured after 24 hrs by Propidium iodide (PI) staining based assay (reference value: 11.48%); assay type: functional
[27] = Induction of 4GY ionizing radiation (IR) induced cell cycle arrest in human HCT-116 cells assessed as accumulation of cells at G2/M phase at 10 uM measured after 24 hrs by Propidium iodide (PI) staining based assay (reference value: 20.51%); assay type: functional
HCT-116 [28] = test: Induction of apoptosis in human HCT-116 cells assessed as early apoptotic cells at 10 uM measured after 24 hrs by FITC Annexin V/PI apoptosis detection assay (reference value: 0.26%); assay type: functional
HCT-116 [29] = test: Induction of apoptosis in human HCT-116 cells assessed as early apoptotic cells at 5 uM measured after 24 hrs by FITC Annexin V/PI apoptosis detection assay (reference value: 0.26%); assay type: functional
HCT-116 [30] = test: Induction of apoptosis in human HCT-116 cells assessed as late apoptotic cells at 5 uM measured after 24 hrs by FITC Annexin V/PI apoptosis detection assay (reference value: 0%); assay type: functional
HCT-116 [31] = test: Induction of 4GY ionizing radiation (IR) induced apoptosis in human HCT-116 cells assessed as early apoptotic cells at 5 uM measured after 24 hrs by FITC Annexin V/PI apoptosis detection assay (reference value: 17.50%); assay type: functional
HCT-116 [32] = test: Induction of 4GY ionizing radiation (IR) induced apoptosis in human HCT-116 cells assessed as viable cells at 10 uM measured after 24 hrs by FITC Annexin V/PI apoptosis detection assay (reference value: 66.88%); assay type: functional; settings: read-out: Activity
HCT-116 [33] = test: Induction of apoptosis in human HCT-116 cells assessed as induction of 4GY ionizing radiation (IR) induced cleaved Caspase-3 at 5 uM measured after 24 hrs by Western blot analysis; assay type: functional, cell-based

With `COc1cc2c(=O)n(CCN(C)C)c3c4cc5c(cc4ccc3c2cc1OCCN1CCOCC1)OCO5` the Activity (HCT-116 [1]) was “Active”, the AUC(0-t) at 24 h [2] was 779 ng·h/mL and the MRT inf [3] was 7.06 h. For the same compound, the TGI (HCT-116 [4]) was “inactive”, the TGI (HCT-116 [5]) was “Active” and the Activity [6] was “Non-toxic”. For the same compound, the Activity [7] was “Non-toxic”, the Activity [8] was “Non-toxic” and the Activity [9] was “Non-toxic”. The Activity [10] was “Active; Coincubation With Ionizing Radiation Showed Greater Complex Formation”, the Activity (HCT-116 [11]) was 28% and the Activity [12] was 7%. For the same compound, the Activity (HCT-116 [13]) was “inactive”, the Activity (HCT-116 [14]) was “inactive” and the Activity (HCT-116 [15]) was “inactive”. The Activity (HCT-116 [16]) was “Active”, the Activity (HCT-116 [17]) was “Active” and the Activity (HCT-116 [18]) was “Dose-dependent-effect”. For the same compound, the Activity (HCT-116 [19]) was “Active”, the Activity (HCT-116 [20]) was “Active” and the Activity (HCT-116 [21]) was “inactive”. The Activity (HCT-116 [22]) was “Active”, the Activity (HCT-116 [23]) was 10.9% and the Activity (HCT-116 [24]) was 18.4%. The Activity (HCT-116 [25]) was 25.64%, the Activity [26] was 11.88% and the Activity [27] was 68.1%. For the same compound, the Activity (HCT-116 [28]) was 13.24%, the Activity (HCT-116 [29]) was 14.89% and the Activity (HCT-116 [30]) was 5.99%. The Activity (HCT-116 [31]) was 19.39%, the viability at 10 µM (HCT-116 [32]) was 55.5% and the Activity (HCT-116 [33]) was “Active”.
